Values quoted from earlier work as cited in patent US8580300B2, “Pharmaceutical formulation for treating the upper digestive tract” (Dr. Falk Pharma GmbH, priority 2008, dated 2013).

Settings: budesonide resorbed in the stomach/digestive tract

## CCCC1O[C@@H]2C[C@H]3[C@@H]4CCC5=CC(=O)C=C[C@]5(C)[C@H]4[C@@H](O)C[C@]3(C)[C@]2(C(=O)CO)O1 (stereo partly drawn) [budesonide, 16,17-(butylidenebis(oxy))-11,21-dihydroxy-(11-β,16-α)-pregna-1,4-diene-3,20-dione]
  share of the absorbed budesonide metabolised by the first-pass effect: 90%
